Measurements taken from ChEMBL document CHEMBL1146803, “Structure activity studies of ring E analogues of methyllycaconitine. Part 2: Synthesis of antagonists to the alpha3beta4* nicotinic acetylcholine receptors through modifications to the ester” (Bioorg Med Chem Lett, 2004).

What follows are compounds tested against Neuronal acetylcholine receptor subunit alpha-7 (Homo sapiens, UniProt P36544) (assay: Affinity for nicotinic acetylcholine receptor alpha7).
Neuronal acetylcholine receptor subunit alpha-7, sequence (P36544 whole entry): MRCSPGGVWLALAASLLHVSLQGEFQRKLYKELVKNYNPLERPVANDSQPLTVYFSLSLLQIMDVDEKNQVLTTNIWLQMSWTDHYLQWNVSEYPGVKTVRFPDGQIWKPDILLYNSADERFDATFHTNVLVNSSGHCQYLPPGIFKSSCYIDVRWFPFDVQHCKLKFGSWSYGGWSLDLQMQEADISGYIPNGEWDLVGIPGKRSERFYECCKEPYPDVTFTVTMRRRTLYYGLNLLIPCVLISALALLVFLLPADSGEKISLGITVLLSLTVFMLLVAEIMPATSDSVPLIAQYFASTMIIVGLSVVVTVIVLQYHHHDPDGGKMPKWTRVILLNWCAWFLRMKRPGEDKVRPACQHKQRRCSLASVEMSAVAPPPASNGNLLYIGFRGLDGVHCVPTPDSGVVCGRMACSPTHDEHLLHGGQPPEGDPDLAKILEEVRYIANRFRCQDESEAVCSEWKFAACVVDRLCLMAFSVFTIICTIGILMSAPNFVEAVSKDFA

Compound	IC50 [µM]
CC1CC(=O)N(c2ccccc2C(=O)OCC2CCCN(CCc3ccccc3)C2)C1=O (centres undefined)	177

The compounds below were run against T1, Neuronal acetylcholine receptor; alpha3/beta4 (Homo sapiens, UniProt P30926+P32297) (assay: Inhibitory activity against nicotinic acetylcholine receptor alpha3-beta4).
Assay type: protein-complex assay

T1 sequence (P30926 whole entry): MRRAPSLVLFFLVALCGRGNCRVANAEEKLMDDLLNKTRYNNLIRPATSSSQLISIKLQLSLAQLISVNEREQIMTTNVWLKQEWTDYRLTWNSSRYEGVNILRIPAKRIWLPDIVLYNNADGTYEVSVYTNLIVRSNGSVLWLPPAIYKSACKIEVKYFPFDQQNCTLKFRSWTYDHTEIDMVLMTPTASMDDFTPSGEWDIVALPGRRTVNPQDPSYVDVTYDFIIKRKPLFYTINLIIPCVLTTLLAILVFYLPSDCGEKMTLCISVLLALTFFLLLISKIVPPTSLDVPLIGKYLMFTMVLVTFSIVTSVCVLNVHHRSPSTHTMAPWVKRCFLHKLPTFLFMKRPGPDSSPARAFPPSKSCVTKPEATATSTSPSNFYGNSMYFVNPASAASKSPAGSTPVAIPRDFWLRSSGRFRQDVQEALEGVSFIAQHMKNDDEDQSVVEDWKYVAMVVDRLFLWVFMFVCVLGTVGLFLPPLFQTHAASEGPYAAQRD
T1 sequence (P32297 whole entry): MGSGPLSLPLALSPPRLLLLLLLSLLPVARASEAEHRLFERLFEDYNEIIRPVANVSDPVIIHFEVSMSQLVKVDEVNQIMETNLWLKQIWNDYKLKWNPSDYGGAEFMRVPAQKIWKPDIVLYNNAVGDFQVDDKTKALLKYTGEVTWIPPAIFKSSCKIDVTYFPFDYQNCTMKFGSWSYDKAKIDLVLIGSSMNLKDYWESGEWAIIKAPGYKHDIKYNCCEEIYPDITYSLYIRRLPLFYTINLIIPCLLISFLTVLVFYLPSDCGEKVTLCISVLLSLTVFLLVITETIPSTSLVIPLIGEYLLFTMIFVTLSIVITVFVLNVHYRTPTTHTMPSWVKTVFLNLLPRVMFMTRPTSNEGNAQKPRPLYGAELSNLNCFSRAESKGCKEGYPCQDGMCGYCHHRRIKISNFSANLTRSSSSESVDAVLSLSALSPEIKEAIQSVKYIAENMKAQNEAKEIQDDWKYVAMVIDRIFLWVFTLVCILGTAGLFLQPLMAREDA

Compound	IC50 [µM]
COc1cc2c3cc1Oc1cc(ccc1O)C[C@@H]1c4c(cc(OC)c(O)c4Oc4ccc(cc4)C[C@@H]3N(C)CC2)CC[N+]1(C)C	2
C[N+](C)(C)CCCCCCCCCC[N+](C)(C)C [DECAMETHONIUM]	~1.7
C[N+](C)(C)CCCCCC[N+](C)(C)C [HEXAMETHONIUM HYDROXIDE]	~1.7

What follows are compounds tested against T1, Neuronal acetylcholine receptor; alpha3/beta4 (assay: Effect on alpha3-beta4 neuronal nicotinic acetylcholine receptor-stimulated adrenal catecholamine secretion).
Assay type: functional

Compound	IC50 [µM]
O=C(OCC1CCCN(CCCc2ccccc2)C1)c1ccccc1F (centres undefined)	5.2
CCC1CC(=O)N(c2ccccc2C(=O)OCC2CCCN(CCCc3ccccc3)C2)C1=O (centres undefined)	4.5
O=C(OCC1CCCN(CCCc2ccccc2)C1)c1ccc(-c2ccccc2)cc1 (centres undefined)	3
CCCCC1CC(=O)N(c2ccccc2C(=O)OCC2CCCN(CCCc3ccccc3)C2)C1=O (centres undefined)	1.5
CC1(C)CC(=O)N(c2ccccc2C(=O)OCC2CCCN(CCCc3ccccc3)C2)C1=O (centres undefined)	7.5
CC1C(=O)N(c2ccccc2C(=O)OCC2CCCN(CCCc3ccccc3)C2)C(=O)C1C (centres undefined)	6
O=C(OCC1CCCN(CCCc2ccccc2)C1)c1ccccc1N1C(=O)c2ccccc2C1=O (centres undefined)	1.3
O=C(OCC1CCCN(CCCc2ccccc2)C1)c1ccccc1-c1ccccc1 (centres undefined)	1.7
O=C(OCC1CCCN(CCCc2ccccc2)C1)c1ccccc1C(F)(F)F (centres undefined)	3.2
CCCCCCCCC1CC(=O)N(c2ccccc2C(=O)OCC2CCCN(CCCc3ccccc3)C2)C1=O (centres undefined)	1.3
CC1CC(=O)N(c2ccccc2C(=O)OCC2CCCN(CCc3ccccc3)C2)C1=O (centres undefined)	11.4
O=C(OCC1CCCN(CCCc2ccccc2)C1)c1ccccc1N1C(=O)CC(C2CCCC2)C1=O (centres undefined)	1.2
C=CCC1CC(=O)N(c2ccccc2C(=O)OCC2CCCN(CCCc3ccccc3)C2)C1=O (centres undefined)	1.7
CC(C)C1CC(=O)N(c2ccccc2C(=O)OCC2CCCN(CCCc3ccccc3)C2)C1=O (centres undefined)	2.5
O=C(OCC1CCCN(CCCc2ccccc2)C1)c1ccccc1N1C(=O)CC(Cc2ccccc2)C1=O (centres undefined)	1.3
CC(=O)Nc1ccccc1C(=O)OCC1CCCN(CCCc2ccccc2)C1 (centres undefined)	8.4
COc1ccccc1C(=O)OCC1CCCN(CCCc2ccccc2)C1 (centres undefined)	3.2
CCN1C[C@]2(COC(=O)c3ccccc3N3C(=O)C[C@H](C)C3=O)CC[C@H](OC)[C@@]34[C@@H]5C[C@H]6[C@H](OC)[C@@H]5[C@](O)(C[C@@H]6OC)[C@](O)([C@@H](OC)[C@H]23)[C@@H]14 [METHYLLYCACONITINE]	2.6

Each compound was assayed against Neuronal acetylcholine receptor subunit alpha-3 (Homo sapiens, UniProt P32297) (assay: Inhibitory activity on nicotinic acetylcholine receptor alpha3).
Neuronal acetylcholine receptor subunit alpha-3, sequence (P32297 whole entry): as above

Compound	IC50 [µM]
CC1CC(=O)N(c2ccccc2C(=O)OCC2CCCN(C(C)C)C2)C1=O (centres undefined)	~20
CC(C)N1CCCC(COC(=O)c2ccccc2N2C(=O)CCC2=O)C1 (centres undefined)	~20
